Structures can show the parent of a compound that is named as a salt.
Columns and labels:
human telomerase = biological target: T1, human telomerase (Homo sapiens, UniProt O14746); experiment: Human telomerase PCR ELISA assay (MCF-7 cell lysate); type: biochemical; conditions: triphosphates, 0.2 μg MCF-7 lysate
T1 construct: endogenous in cells; host or cells: MCF-7 cell lysate
Protocol: Exemplary compounds were tested for ability to inhibit human telomerase using a PCR ELISA assay. Off-target inhibition of human telomerase can result in undesired cellular toxicity, e.g., triggering replicative senescence and/or apoptotic cell death. Assay procedures and results are described below.
The human telomerase assay was performed with telomerase in the MCF-7 cell lysate using the Telo TAGGG Telomerase PCR ELISA^Plus kit (Roche) per manufacturer's instruction. MCF-7 cells were lysed in the lysis buffer and the supernatant was used for the assay. Test compound was serially diluted in water and mixed with 0.2 μg of MCF-7 lysate in PCR tubes and incubate at room temperature for 15 minutes. The PCR reaction mixture was then added, the tubes were transferred to a thermal cycler (Analytikjena) and the telomerase elongation reaction was performed for 30 minutes followed by 30 PCR cycles with the following protocol:
Mix 2.5 μL of PCR amplification product from above to 10 μl of denature reagent to each well of a PCR plate and incubate at room temperature for 10 minutes. Add in 100 μl of hybridization buffer T and mix well. Transfer 100 μl per well of the reaction mixture to the precoated MP module, incubate at 37° C. for 2 hours. Remove the hybridization solution, wash three times with the wash buffer, add anti-DIG-HRP solution, incubate at room temperature for 30 minutes. Remove the anti-DIG-HRP solution and wash five times with the wash buffer. Add TMB substrate and incubate at room temperature for 10 minutes. Measure the absorbance at 450 nm using Envision (PerkinElmer).

[1] = biological target: T2, HERV-K reverse transcriptase (Homo sapiens, UniProt V9H0F6); experiment: Homogeneous time-resolved fluorescence (HTRF) HERV-K RT assay; type: biochemical; conditions: triphosphate analogs, HERV-K enzyme 16 ng/well, 25° C. 30 minutes
T2 construct: fused on or other part: C-terminal 8xHis tag
Protocol: Exemplary triphosphate analogs were tested for ability to inhibit HERV-K reverse transcriptase using a homogeneous time-resolved fluorescence (HTRF) assay. Assay procedures and results are described below.
The HERV-K reverse transcriptase homogeneous time-resolved fluorescence (HTRF) assay was performed in a 384-well format with HERV-K reverse transcriptase (2-596)-8His protein. Baculoviruses were created using Bac-to-Bac technology (Invitrogen). pFastflac donor plasmids containing HERV-K reverse transcriptase sequence (NCBI GenBank number AAC63291.1, J. Virology (1999) Vol. 73, No. 3, pp. 2365-2375) were transformed into DH10 Bac cells following the manufacturer's instructions. Recombinant bacmids were then isolated clonally and transfected into SF9 cells with lipofectin. HERV-K reverse transcriptase was expressed in the SF9 insect cells and then purified using immobilized metal affinity chromatography (IMAC) followed by size-exclusion chromatography (SEC).
Test compound was serially diluted in DMSO and further diluted in the assay buffer (50 mM Tris-HCl, 50 mM KCl, 10 mM MgCl2, 10 mM DTT, pH 8.1) to achieve a final DMSO concentration of 1%. The serially diluted compound was mixed with 16 ng/well of HERV-K enzyme, 5 nM of pre-annealed template/biotin-primer pair (synthesized at Geneway Biotechnology), 10 nM of Fluorescein-12-dCTP fluorescent probe (PerkinElmer), and 1 mM dGTP, dATP, and DTTP (ThermoFisher). The template/biotin-primer sequences were:
After incubating at 25° C. for 30 minutes, the detection reagent 20 mM EDTA with streptavidin-terbium cryptate (Cisbio Bioassay) in the PPI buffer (Cisbio Bioassay) was added, and the mixture was incubated at 25° C. for 60 minutes. At the end of the incubation, fluorescence was read at ex/em=337/485 nm and ex/em=337/520 nm on an Envision 2104 plate reader (PerkinElmer). The fluorescence ratio at 520/485 nm was used for the calculation. […] IC50 values were calculated by fitting the compound dose inhibition curve with a 4-parameter non-linear regression equation.

T1 sequence (O14746 whole entry): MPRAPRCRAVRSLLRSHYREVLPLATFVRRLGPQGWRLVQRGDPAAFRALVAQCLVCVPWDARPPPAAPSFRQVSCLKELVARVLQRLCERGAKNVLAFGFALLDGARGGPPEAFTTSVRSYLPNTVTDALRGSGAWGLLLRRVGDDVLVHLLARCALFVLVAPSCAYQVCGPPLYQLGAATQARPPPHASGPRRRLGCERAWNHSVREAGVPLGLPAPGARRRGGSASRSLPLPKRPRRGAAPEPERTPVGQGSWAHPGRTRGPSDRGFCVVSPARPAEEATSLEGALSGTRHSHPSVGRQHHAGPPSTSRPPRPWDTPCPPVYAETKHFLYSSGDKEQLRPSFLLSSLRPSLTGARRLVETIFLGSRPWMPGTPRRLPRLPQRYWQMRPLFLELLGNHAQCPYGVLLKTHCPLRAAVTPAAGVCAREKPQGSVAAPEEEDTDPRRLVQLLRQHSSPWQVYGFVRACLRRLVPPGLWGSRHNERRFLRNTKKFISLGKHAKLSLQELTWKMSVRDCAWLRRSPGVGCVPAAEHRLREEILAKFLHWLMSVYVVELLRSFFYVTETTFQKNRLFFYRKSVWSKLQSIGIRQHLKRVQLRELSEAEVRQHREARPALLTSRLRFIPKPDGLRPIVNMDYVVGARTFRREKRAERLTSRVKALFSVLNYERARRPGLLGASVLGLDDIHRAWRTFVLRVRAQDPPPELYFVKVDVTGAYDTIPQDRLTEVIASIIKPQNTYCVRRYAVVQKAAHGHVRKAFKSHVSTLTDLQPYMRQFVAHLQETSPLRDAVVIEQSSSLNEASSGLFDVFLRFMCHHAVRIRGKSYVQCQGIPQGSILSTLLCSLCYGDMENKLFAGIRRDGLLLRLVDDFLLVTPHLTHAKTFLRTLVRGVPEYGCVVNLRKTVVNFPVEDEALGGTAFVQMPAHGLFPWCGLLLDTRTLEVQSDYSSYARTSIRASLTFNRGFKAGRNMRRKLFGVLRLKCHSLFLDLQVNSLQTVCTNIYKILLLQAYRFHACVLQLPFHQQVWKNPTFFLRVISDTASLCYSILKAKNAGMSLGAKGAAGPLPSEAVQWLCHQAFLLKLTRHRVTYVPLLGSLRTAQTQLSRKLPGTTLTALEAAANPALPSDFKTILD
T1 sequence (O60832 whole entry partner): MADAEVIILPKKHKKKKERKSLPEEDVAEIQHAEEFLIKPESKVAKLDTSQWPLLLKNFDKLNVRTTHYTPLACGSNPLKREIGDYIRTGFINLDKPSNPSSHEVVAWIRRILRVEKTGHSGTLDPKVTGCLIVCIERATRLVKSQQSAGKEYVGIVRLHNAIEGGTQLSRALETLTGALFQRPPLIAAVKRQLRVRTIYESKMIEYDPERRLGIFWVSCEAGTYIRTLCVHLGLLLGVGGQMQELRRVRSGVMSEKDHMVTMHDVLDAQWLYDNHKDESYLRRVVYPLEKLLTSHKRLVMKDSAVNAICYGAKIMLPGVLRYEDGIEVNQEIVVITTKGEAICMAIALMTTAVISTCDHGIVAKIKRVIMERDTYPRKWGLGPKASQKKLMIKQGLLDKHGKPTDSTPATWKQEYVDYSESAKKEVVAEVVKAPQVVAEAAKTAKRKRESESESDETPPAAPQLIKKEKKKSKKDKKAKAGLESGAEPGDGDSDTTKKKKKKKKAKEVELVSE
T1 sequence (Q9NX24 whole entry partner): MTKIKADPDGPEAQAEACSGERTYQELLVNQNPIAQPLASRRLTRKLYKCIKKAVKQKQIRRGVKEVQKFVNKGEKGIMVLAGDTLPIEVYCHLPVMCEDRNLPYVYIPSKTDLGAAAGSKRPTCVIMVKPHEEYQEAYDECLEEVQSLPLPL
T1 sequence (Q9NPE3 whole entry partner): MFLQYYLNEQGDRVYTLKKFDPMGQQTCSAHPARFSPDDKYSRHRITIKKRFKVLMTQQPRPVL
T1 sequence (Q9NY12 whole entry partner): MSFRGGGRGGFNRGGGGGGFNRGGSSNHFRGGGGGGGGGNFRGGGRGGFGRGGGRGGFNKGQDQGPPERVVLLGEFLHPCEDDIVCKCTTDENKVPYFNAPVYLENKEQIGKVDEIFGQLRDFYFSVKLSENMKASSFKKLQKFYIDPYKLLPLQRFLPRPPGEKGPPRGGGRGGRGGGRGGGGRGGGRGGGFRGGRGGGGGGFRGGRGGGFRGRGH
T2 sequence (V9H0F6 entry or part of it): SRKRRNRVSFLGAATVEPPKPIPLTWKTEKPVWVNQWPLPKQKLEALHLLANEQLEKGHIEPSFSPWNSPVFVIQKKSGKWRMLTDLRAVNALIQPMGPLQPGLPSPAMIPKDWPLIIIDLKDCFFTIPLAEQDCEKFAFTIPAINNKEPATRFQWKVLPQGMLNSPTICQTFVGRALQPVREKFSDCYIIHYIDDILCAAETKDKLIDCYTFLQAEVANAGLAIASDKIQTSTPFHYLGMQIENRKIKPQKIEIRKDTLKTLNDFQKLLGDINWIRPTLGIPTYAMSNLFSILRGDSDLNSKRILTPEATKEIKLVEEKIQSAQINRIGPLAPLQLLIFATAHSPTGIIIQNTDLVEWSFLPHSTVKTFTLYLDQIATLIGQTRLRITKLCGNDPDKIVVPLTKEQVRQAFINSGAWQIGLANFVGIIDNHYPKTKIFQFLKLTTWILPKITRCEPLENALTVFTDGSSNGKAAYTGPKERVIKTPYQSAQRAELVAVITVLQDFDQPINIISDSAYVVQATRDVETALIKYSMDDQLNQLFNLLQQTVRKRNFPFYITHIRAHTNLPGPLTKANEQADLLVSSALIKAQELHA

IC50 (human telomerase) | IC50 [1] | SMILES
25 to 50 µM | > 10 µM | CC[C@]1(COP(=O)(O)OP(=O)(O)OP(=O)(O)O)O[C@@H](n2ccc(N)nc2=O)C[C@@H]1O [44-TP]
≤ 1 µM | 17 µM | Nc1ccn([C@H]2C[C@H](O)[C@@](CCl)(COP(=O)(O)OP(=O)(O)OP(=O)(O)O)O2)c(=O)n1 [Compound 2-TP]
≤ 1 µM | > 10 µM | Nc1nc(=O)n([C@H]2C[C@H](O)[C@@](CCl)(COP(=O)(O)OP(=O)(O)OP(=O)(O)O)O2)cc1F [Compound 14-TP, ((2R,3S,5R)-5-(4-amino-5-fluoro-2-oxopyrimidin-1(2H)-yl)-2-(chloromethyl)-3-hydroxytetrahydrofuran-2-yl)methyl tetrahydrogen triphosphate TEA Salt]
> 100 µM | 0.013 µM | C#C[C@]1(COP(=O)(O)OP(=O)(O)OP(=O)(O)O)O[C@@H](n2ccc(N)nc2=O)[C@@H](F)[C@@H]1O [Compound 35-TP]
> 100 µM | > 10 µM | Nc1ccn([C@@H]2O[C@](CCl)(COP(=O)(O)OP(=O)(O)OP(=O)(O)O)[C@@H](O)[C@@H]2F)c(=O)n1 [Compound 40-TP]
1 to 25 µM | 4.01 µM | C=C[C@]1(COP(=O)(O)OP(=O)(O)OP(=O)(O)O)O[C@@H](n2ccc(N)nc2=O)C[C@@H]1O [Compound 43-TP]
> 100 µM | > 10 µM | Nc1nc(=O)n([C@@H]2O[C@](CCl)(COP(=O)(O)OP(=O)(O)OP(=O)(O)O)[C@@H](O)[C@@H]2F)cc1F [Compound 67-TP]

— patent US20230295212A1 (ROME Therapeutics, Inc., priority 2022, published 2023)
